Data on 36 molecules can be found in ChEMBL document CHEMBL1201862, “PubChem BioAssay data set” (2004).

Assay [1] has as its target T1, Calpain-2 catalytic subunit (Sus scrofa, UniProt P43367).
T1 sequence (P43367 whole entry): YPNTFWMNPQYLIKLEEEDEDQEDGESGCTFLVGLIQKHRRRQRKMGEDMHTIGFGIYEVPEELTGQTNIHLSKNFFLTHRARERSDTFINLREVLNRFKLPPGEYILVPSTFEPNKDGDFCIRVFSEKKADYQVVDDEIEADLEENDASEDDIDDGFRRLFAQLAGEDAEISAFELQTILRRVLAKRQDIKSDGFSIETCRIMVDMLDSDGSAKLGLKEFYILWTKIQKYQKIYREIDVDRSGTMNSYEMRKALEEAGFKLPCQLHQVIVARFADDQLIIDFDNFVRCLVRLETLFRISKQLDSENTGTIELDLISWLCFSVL
Kind of assay: pig calpain II inhibitor potency, dose response, biochemical, fluorogenic peptide substrate (AID 1420). The format is functional.

Assay [2] is described as follows: inhibitors of firefly luciferase expression or activity, dose response, H4 neuroglioma cells, luminescence (AID 1990). The assay is classed as functional, cell-based.
A short description of assay [3]: Luminescence Cell-Based Dose Response HTS to Identify Inhibitors of 5'UTR Stem-Loop Driven Prion Protein mRNA Translation in H4 Neuroglioblastoma Cells. [Related pubchem assays: 1827 (Project Summary), 1813 (Primary HTS)]. The format is functional.
Assay [4] in a line: inhibitors of SNCA 5'UTR-driven reporter translation, confirmation, H4 neuroglioma cells, luminescence (AID 1988). The format is functional, cell-based.
For assay [5], the target named is T2, Corticotropin-releasing factor receptor 2/Corticotropin-releasing factor-binding protein (Homo sapiens, UniProt P24387+Q13324).
T2 sequence (Q13324 whole entry): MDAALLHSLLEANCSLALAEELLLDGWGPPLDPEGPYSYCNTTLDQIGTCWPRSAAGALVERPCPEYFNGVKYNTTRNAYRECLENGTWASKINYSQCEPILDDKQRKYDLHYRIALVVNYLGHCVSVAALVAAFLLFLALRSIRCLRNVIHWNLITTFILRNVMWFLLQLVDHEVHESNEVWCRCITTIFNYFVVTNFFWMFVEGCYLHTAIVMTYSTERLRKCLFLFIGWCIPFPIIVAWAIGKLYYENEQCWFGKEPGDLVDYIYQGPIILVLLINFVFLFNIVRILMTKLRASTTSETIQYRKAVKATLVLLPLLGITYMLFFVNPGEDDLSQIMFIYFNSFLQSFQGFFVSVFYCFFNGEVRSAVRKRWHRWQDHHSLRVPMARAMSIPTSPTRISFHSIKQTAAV
T2 sequence (P24387 whole entry): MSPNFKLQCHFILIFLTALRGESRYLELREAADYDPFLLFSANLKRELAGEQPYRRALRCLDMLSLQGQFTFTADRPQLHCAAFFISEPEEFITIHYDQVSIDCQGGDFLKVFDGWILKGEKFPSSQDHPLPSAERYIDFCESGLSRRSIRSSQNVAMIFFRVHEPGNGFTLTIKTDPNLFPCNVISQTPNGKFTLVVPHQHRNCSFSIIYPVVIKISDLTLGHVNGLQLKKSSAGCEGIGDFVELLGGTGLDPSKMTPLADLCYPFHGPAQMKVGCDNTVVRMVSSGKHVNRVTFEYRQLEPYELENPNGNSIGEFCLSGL
Description: activators of CRF receptor 2 with binding protein – uHTS hits, confirmation (AID 602473). The format is functional. The settings on record: read-out: EC50_Mean.

Assay [6] deals with Streptococcus sp. 'group A'. Description: growth inhibition of control SK(-) GAS strain, dose response, counter-screen for streptokinase expression inhibitor project, luminescence, kanamycin, BacTiterGlo, confirmation (AID 1900). The assay is classed as functional, organism-based.
The next assay deals with T3, Streptokinase A (Streptococcus pyogenes serotype M1, UniProt P10520).
T3 sequence (P10520 whole entry): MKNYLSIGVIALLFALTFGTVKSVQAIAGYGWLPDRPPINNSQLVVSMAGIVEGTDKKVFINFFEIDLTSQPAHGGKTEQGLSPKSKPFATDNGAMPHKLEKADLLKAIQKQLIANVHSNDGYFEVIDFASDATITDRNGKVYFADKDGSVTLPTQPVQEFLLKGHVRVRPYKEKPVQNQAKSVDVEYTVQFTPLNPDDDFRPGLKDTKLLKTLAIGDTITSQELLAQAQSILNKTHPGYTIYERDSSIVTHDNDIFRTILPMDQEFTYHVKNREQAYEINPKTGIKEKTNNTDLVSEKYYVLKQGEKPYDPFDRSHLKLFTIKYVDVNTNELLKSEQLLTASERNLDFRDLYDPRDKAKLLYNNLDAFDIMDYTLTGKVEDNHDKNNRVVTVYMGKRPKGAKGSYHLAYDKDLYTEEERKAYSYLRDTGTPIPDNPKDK
Description: S. pyogenes streptokinase expression inhibitors, potency, dose response, plasminogen activation absorbance, OD405 (AID 1914).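 Also: secreted streptokinase activity via plasminogen activation per viability signal from cell pellet.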 The assay is classed as functional, Streptococcus pyogenes M1 GAS.

A further assay has as its system Streptococcus. Kind of assay: Group A Streptococcus viability loss, dose response, counter-screen for streptokinase expression inhibitor project, luminescence, BacTiterGlo (AID 1915).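 Also: potency for reduction of bacterial viability or growth.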 The format is functional, organism-based.
The nature of assay [7]: Luminescence Cell-Based Dose Confirmation HTS to Identify Inhibitors of Platelet Dense Granule Release. [Related pubchem assays: 1663 (Primary HTS), 1678 (Summary of Project)]. The format is functional.
Assay [8] addresses Luciferin 4-monooxygenase (Photinus pyralis, UniProt P08659). Kind of assay: firefly luciferase enzyme inhibitors, dose response, biochemical, luminescence (AID 1891).
The nature of assay [9]: NIH-3T3 fibroblast cytotoxicity, dose response, cytotoxicity control, cell-based, fluorescence, Alamar Blue, secondary assay (AID 2327).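 Also: NIH-3T3 mouse fibroblasts cultured with fluconazole at 8 µg/mL.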 The format is functional. Background: Resazurin is reduced to fluorescent resorufin, in cell work by metabolically active cells.
A short description of assay [10]: C. albicans growth with fluconazole, confirmation, fluorescence, retest (AID 2467). The assay is classed as functional, cell-based.
Another assay has as its target Paired box protein Pax-8 (Homo sapiens, UniProt Q06710). Description: inhibitors of PAX8-driven TPO luciferase reporter, dose response, RMG-I cells, cherry-pick (AID 687027).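 Also: luciferase reporter driven by Pax8 target thyroperoxidase promoter measured by SteadyGlo luminescence.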 The assay is classed as functional, cell-based. Background: In a reporter assay the amount or activity of a reporter protein is the signal.
Assay [11] is described as follows: ZM109 Env clade C HIV-1 fusion inhibitors, dose response, HeLa effector, CEM target cells, luciferase, cherry-pick (AID 652058). The assay is classed as functional, cell-based.
The nature of assay [12]: inhibitors of clade B AD8 Env fusion, dose response, cell-based, cherry-pick (AID 652062).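 Also: luciferase signal from cell-cell fusion driven by HIV-1 clade B AD8 Env; potency is for inhibitors of fusion seen as a drop in luminescence.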 The assay is classed as functional.
Assay [13] in a line: inhibitors of HIV Env-driven cell fusion, dose response, cherry-pick (AID 652057). The format is functional, cell-based.
The next assay has as its system H9c2. Description: cells. The format is functional, cell-based. The settings on record: Rattus norvegicus, H9c2, Myocardium.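 Also: confirmatory concentration-response retest of ultra-high-throughput screening hits for modulation of myocardial damage; cell death induced by hydrogen peroxide oxidative stress; compound pretreatment for 60 min then peroxide exposure for 2 h; potency is for protecting the cells against peroxide damage rather than for killing them.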

The source made the active and inactive calls. Rule as the data show it, for most assays here: actives have a measured EC50 and inactives only a lower limit.

Chain of Luciferin 4-monooxygenase (P08659 whole entry): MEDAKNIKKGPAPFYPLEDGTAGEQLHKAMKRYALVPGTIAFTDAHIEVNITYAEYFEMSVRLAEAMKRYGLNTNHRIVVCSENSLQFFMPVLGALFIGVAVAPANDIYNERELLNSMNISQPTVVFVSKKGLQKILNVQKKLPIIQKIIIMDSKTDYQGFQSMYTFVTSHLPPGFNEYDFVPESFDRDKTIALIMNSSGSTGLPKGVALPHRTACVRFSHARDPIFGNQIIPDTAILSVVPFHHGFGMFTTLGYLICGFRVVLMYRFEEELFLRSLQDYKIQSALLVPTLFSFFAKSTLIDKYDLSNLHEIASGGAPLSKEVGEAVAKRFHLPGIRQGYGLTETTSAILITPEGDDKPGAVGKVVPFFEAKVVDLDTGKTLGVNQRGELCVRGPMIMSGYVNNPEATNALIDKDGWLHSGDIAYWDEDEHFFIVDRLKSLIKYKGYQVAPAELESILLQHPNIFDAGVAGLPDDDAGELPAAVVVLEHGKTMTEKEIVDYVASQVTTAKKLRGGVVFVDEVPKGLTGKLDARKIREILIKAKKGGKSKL
Chain of Paired box protein Pax-8 (Q06710 whole entry, the tested form may be a part): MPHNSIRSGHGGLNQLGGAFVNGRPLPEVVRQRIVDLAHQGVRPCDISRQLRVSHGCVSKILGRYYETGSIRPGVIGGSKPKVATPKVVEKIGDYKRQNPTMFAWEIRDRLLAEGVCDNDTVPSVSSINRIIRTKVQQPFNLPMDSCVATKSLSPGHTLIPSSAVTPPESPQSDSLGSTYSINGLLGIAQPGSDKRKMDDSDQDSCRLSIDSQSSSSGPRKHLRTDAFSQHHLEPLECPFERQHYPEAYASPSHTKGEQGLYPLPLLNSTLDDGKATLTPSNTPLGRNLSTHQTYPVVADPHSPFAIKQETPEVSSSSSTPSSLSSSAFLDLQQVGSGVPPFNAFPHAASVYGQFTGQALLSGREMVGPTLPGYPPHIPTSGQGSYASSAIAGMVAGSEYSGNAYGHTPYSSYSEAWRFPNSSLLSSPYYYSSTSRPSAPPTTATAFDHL

Usually IC50 stands for the concentration that gives 50% inhibition. `COc1ccc(NC(=O)c2noc(C(C)C)c2[N+](=O)[O-])cc1`: the IC50 in assay [1] is given as 9.64 µM (not active). Still for that read-out and setting: under `c1ccc(-c2cn(-c3ccccc3)c3ncnc(N4CCCCC4)c23)cc1` stands 5.36 µM (not active); under `CCOC(=O)c1c(NC(=O)CSc2nnnn2C)sc(C)c1-c1ccc(C)cc1`, 5.1 µM (not active). For the molecule `CC(C)OC(=O)c1cc2c(ccn2C)n1CC(=O)N(Cc1ccccc1)c1ccccc1`, the results for the EC50 in [2], in assay [3] and in [4] were > 120 µM (not active), > 120 µM (not active) and 13.7 µM (active), respectively. For the molecule `CCOc1ccccc1C(=O)N1c2ccccc2Sc2ccccc21`, in assay [1], the IC50 is reported as 4.06 µM (not active).

For `COc1ccc(C(=O)NNC(=S)NC(=O)c2ccc(OC)cc2)cc1`, the EC50 in assay [5] is 5.09 µM (active). For `O=C(NCCc1csc(-c2cccnc2)n1)c1ccc(Br)o1`, in [1], the IC50 is < 0.4 µM (not active). As for `CCCC1=NN2C(=N)/C(=C\c3cc(C)n(-c4cc(C)cc(C)c4)c3C)C(=O)N=C2S1`, the EC50 is 1.63 µM (active) in assay [6], 5.85 µM (active) at Streptokinase A, 18.7 µM (active) with Streptococcus and 9.04 µM (active) in [5]. In the case of `COc1ccc(CSc2ncnc3sccc23)cc1F`, the EC50 in assay [7] and in assay [8] was > 112 µM (not active) in each case. For the molecule `O=C(NCC(=O)N(CC1CCCO1)C(C(=O)NC1CCCCC1)c1ccccc1)c1ccco1` (stereo not drawn), the EC50 in [9] is > 150 µM (inactive); in assay [10] it was 6.52 µM (active). For `CSc1ccc(/C=C(/NC(=O)c2ccco2)C(=O)N2CCCCC2)cc1`, the EC50 is 17.5 µM (active) in [7] and > 112 µM (not active) in [8]. Turning to `Cc1onc(-c2ccccc2)c1C(=O)NC(=S)NNC(=O)c1cccnc1`, the EC50 in [9] is > 160 µM (inactive); in assay [10] it was > 38 µM (not active).

For the molecule `Cc1ccc(C)c(N(C(=O)Cc2cccs2)C(C(=O)NC2CCCC2)c2ccc(C)o2)c1` (stereo not drawn), the IC50 in assay [1] is given as 7.05 µM (not active). For `COc1ccc(NC(=S)N(CCCN2CCOCC2)Cc2cn(C)c3ccccc23)cc1`, the IC50 in assay [1] was 0.737 µM (not active). Take `CNC(=O)COC(=O)c1c2c(nc3ccccc13)CCC2`: the EC50 was > 160 µM (inactive) in assay [9] and > 38 µM (not active) in [10]. On to `CCCC(=O)C1=C(N2CCCC2)CC(C)(C)C(C(=O)OC)C1=O` (stereo not drawn), for which the EC50 in [7] and in assay [8] was > 112 µM (not active) each time. By AC50 is commonly meant the midpoint of the concentration-response curve, whichever way the signal moves. Consider `Cc1ccc(S(=O)(=O)Nc2ccc3c(c2)C(=O)N([C@@H](C)CO)C[C@@H](C)[C@@H](CN(C)Cc2ccc(C(F)(F)F)cc2)OCCCC[C@H](C)O3)cc1`, for which the AC50 at Paired box protein Pax-8 was 9.16 µM (active). As to `Cc1nc2ncnn2c(Nc2ccc3c(c2)OCO3)c1Cc1ccccc1`, the figures for the EC50 in assay [2], in [3] and in assay [4] were 43.7 µM (active), > 120 µM (not active) and > 120 µM (not active), respectively. For `COc1ccc(NC(=O)CSc2ccccn2)c([N+](=O)[O-])c1`, the EC50 in assay [7] and in [8] was > 112 µM (not active) each time. Consider `Cc1cc(OCC(=O)NNC(=S)NC(=O)c2cccs2)ccc1Cl`, for which the EC50 is 74.8 µM (active) in assay [9] and 2.09 µM (active) in [10]. As for `COc1ccc(-n2c(C)c(C(C)=O)c(C(C)=O)c2C)cc1OC`, the EC50 in assay [7] and in [8] was > 112 µM (not active) each time. Consider `Cc1ccc(CNC(=O)CN=C(S)N(Cc2ccccc2)Cc2ccccc2F)cc1`, for which, in [1], the IC50 is listed as 5.45 µM (not active).

For `COc1ccccc1NC(=O)CSc1nc(O)c2c(C)cc(C)nc2n1`, the EC50 in assay [7] and in [8] was > 112 µM (not active) throughout.

Take `N=C(NOC(=O)c1ccc2ccccc2c1)c1ccccn1`: the values for the EC50 in assay [7] and in assay [8] were 1.53 µM (active) and 0.596 µM (active), respectively. With `C[C@H](CO)N1C[C@H](C)[C@H](CN(C)S(=O)(=O)c2ccc(F)cc2)Oc2ccc(NC(=O)Nc3cccc4ccccc34)cc2CC1=O`, the AC50 was 0.483 µM (active) in assay [11], 1.27 µM (active) in assay [12] and < 0.26 µM (active) in [13].

Regarding `O=C(Nc1ccncc1)c1ccc(Br)cc1`, the results for the EC50 in [9] and in [10] were > 150 µM (inactive) and > 38 µM (not active), respectively. Turning to `Cn1c(NCc2ccco2)nc2c1c(=O)n(Cc1ccc(Cl)cc1)c(=O)n2C`, the IC50 in assay [1] was 1.88 µM (not active); in the assay on H9c2, > 79 µM (inactive). In addition, the EC50 is 16.9 µM (active) in assay [2] and > 120 µM (not active) in assay [4]. As for `CC/C(=N\CCc1c(C)[nH]c2ccc(OC(F)(F)F)cc12)C1=C(O)CC(c2ccccc2)CC1=O` (stereo not drawn), the results for the EC50 in [2], in [3] and in assay [4] were 10.7 µM (active), 16.8 µM (active) and 8.9 µM (active), respectively. As for `O=C(O)C1C2C=CC(O2)C1C(=O)NCCCn1ccnc1` (stereo not drawn), the EC50 in [7] and in assay [8] was > 112 µM (not active) each time. Take `CCCCNCCOCCOc1ccc(F)cc1`: the EC50 in assay [7] and in assay [8] was > 112 µM (not active) each time.

Take `O=C(COS(=O)c1ccccc1)Nc1cc(Cl)ccc1N1CCOCC1` (stereo not drawn): the figures for the EC50 in assay [9] and in assay [10] were > 160 µM (inconclusive) and 2.82 µM (active), respectively. Regarding `O=C(c1ccco1)N1CCCN(Cc2nc(-c3cccs3)no2)CC1`, the EC50 in assay [7] is 25 µM (active); in assay [8] it was > 112 µM (not active). The corresponding values for `CCOC(=O)c1c(C)[nH]c(C)c1S(=O)(=O)NCC(=O)Nc1ccccn1` are > 112 µM (not active) and > 112 µM (not active). As for `C[C@@H]1CN([C@@H](C)CO)C(=O)Cc2cc(NC(=O)Nc3ccc(F)cc3)ccc2O[C@H]1CN(C)Cc1ccc(Cl)c(Cl)c1`, the AC50 at Paired box protein Pax-8 was 5.72 µM (active). As for `CN(C)C(=O)C(=O)c1c(-c2ccccc2)cc2ccccn12`, the IC50 in assay [1] is listed as > 50 µM (not active). With `O=C(N/N=C/c1sc(N2CCCCC2)nc1-c1cccs1)c1cccnc1`, the EC50 is > 160 µM (inconclusive) in assay [9] and > 38 µM (not active) in [10].
